Data: US20200017495A1, “NOVEL HETEROCYCLIC COMPOUNDS AND THEIR USE IN PREVENTING OR TREATING BACTERIAL INFECTIONS” (priority 2017, published 2020)

Assays:
Assay in all cases: MIC of compounds alone and combined with antibacterials, broth microdilution (CLSI)
Type in all cases: cell-based
[1] = test system: Klebsiella pneumoniae (KPN) isolates
How it was run: (§1)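 Broth microdilution in cation-adjusted Mueller-Hinton broth, inoculum 5.10^5 CFU/mL, 16-20 h at 35° C in ambient air, on genotyped isolates. Compound MIC, alone or with an antibacterial, taken visually as lowest concentration preventing growth; antibacterial MIC determined at each compound concentration.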

[2] = test system: Serratia marcescens (SMA) isolates
How it was run: as §1

[3] = test system: Citrobacter murliniae (CMU) isolates; conditions: for MIC ATB in combination: CMU 210102
How it was run: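 Compounds tested alone or with an antibacterial against genotyped isolates; DMSO dilutions spotted, then log-phase inoculum at 5.10^5 CFU/mL in cation-adjusted Mueller-Hinton broth added. Incubation 16-20 h at 35° C in ambient air. MIC read visually as lowest concentration preventing growth; for combinations, antibacterial MIC determined at each compound concentration.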

C=CC1=C(C(=O)O)N2C(=O)[C@@H](NC(=O)/C(=N\OCC(=O)O)c3csc(N)n3)[C@H]2SC1 [FIX, Cefixime]
MIC ATB in combination ([1]; strain KPN UFR170, with AF3 @ 8 μg/mL): >128 µg/mL | MIC ATB in combination ([1]; strain KPN UFR170, with CLA @ 4 μg/mL): >128 µg/mL | MIC ([1]; strain KPN UFR171, genotype TEM-1, SHV-28, CTX-M-15, OXA-1, OXA-10, NDM-1, RmtA, antibiotic alone): >128 µg/mL | MIC ATB in combination ([1]; strain KPN UFR171, with AF2 @ 8 μg/mL): <0.25 µg/mL | MIC ATB in combination ([1]; strain KPN UFR171, with AF3 @ 8 μg/mL): <0.25 µg/mL | MIC ATB in combination ([1]; strain KPN UFR171, with CLA @ 4 μg/mL): >128 µg/mL | MIC ([1]; strain KPN UFR172, genotype SHV-38, CMY-16, OXA-10, NDM-1, antibiotic alone): >128 µg/mL | MIC ATB in combination ([1]; strain KPN UFR172, with AF2 @ 8 μg/mL): <0.25 µg/mL | MIC ATB in combination ([1]; strain KPN UFR172, with AF3 @ 8 μg/mL): <0.25 µg/mL | MIC ATB in combination ([1]; strain KPN UFR172, with CLA @ 4 μg/mL): >128 µg/mL | MIC ([1]; strain KPN UFR215, genotype SHV-27, CTX-M-15): >128 µg/mL | MIC ([1]; strain KPN UFR216, genotype SHV-28, CTX-M-15): >128 µg/mL | MIC ([1]; strain KPN UFR217, genotype TEM-1, SHV-1, CTX-M-15): >128 µg/mL | MIC ([1]; strain KPN UFR219, genotype SHV-12, CTX-M-15): >128 µg/mL | MIC ([1]; strain KPN UFR220, genotype TEM-1, SHV-12, DHA-1): >128 µg/mL | MIC ([1]; strain KPN UFR221, genotype TEM-1, SHV-11, CTX-M-14, DHA-1): 64 µg/mL | MIC ([1]; strain KPN UFR222, genotype DHA-2): >128 µg/mL | MIC ([1]; strain KPN UFR227O, genotype TEM-x, SHV-x, CTX-M-x): >128 µg/mL | MIC ([1]; strain KPN UFR229O, genotype SHV-12, VIM-1, antibiotic alone): >128 µg/mL | MIC ATB in combination ([1]; strain KPN UFR229O, with AF2 @ 8 μg/mL): >128 µg/mL | MIC ATB in combination ([1]; strain KPN UFR229O, with AF3 @ 8 μg/mL): >128 µg/mL | MIC ATB in combination ([1]; strain KPN UFR229O, with CLA @ 4 μg/mL): >128 µg/mL | MIC ATB in combination ([2]; SMA UFR30, AF2 @ 8 μg/mL): 0.5 µg/mL | MIC ATB in combination ([2]; SMA UFR30, AF3 @ 8 μg/mL): <=0.25 μg/mL | MIC ATB in combination ([2]; SMA UFR30, CLA @ 4 μg/mL): 1 µg/mL | MIC ATB in combination ([2]; SMA UFR134, AF2 @ 8 μg/mL): 0.5 µg/mL | MIC ATB in combination ([2]; SMA UFR134, AF3 @ 8 μg/mL): <=0.25 μg/mL | MIC ATB in combination ([2]; SMA UFR134, CLA @ 4 μg/mL): 32 µg/mL | MIC ATB in combination ([2]; SMA UFR135, AF2 @ 8 μg/mL): 2 µg/mL | MIC ATB in combination ([2]; SMA UFR135, AF3 @ 8 μg/mL): 2 µg/mL | MIC ATB in combination ([2]; SMA UFR135, CLA @ 4 μg/mL): 32 µg/mL | MIC ATB in combination ([2]; SMA UFR136, AF2 @ 8 μg/mL): 4 µg/mL | MIC ATB in combination ([2]; SMA UFR136, AF3 @ 8 μg/mL): 4 µg/mL | MIC ATB in combination ([2]; SMA UFR136, CLA @ 4 μg/mL): >128 µg/mL | MIC ATB in combination ([2]; SMA UFR137, AF2 @ 8 μg/mL): <=0.25 μg/mL | MIC ATB in combination ([2]; SMA UFR137, AF3 @ 8 μg/mL): <=0.25 μg/mL | MIC ATB in combination ([2]; SMA UFR137, CLA @ 4 μg/mL): 1 µg/mL | MIC ATB in combination ([2]; SMA UFR138, AF2 @ 8 μg/mL): <=0.25 μg/mL | MIC ATB in combination ([2]; SMA UFR138, AF3 @ 8 μg/mL): <=0.25 μg/mL | MIC ATB in combination ([2]; SMA UFR138, CLA @ 4 μg/mL): 0.5 µg/mL | MIC ATB in combination ([2]; SMA UFR139, AF2 @ 8 μg/mL): 1 µg/mL | MIC ATB in combination ([2]; SMA UFR139, AF3 @ 8 μg/mL): <=0.25 μg/mL | MIC ATB in combination ([2]; SMA UFR139, CLA @ 4 μg/mL): 2 µg/mL | MIC ATB in combination ([2]; SMA UFR141, AF2 @ 8 μg/mL): <=0.25 μg/mL | MIC ATB in combination ([2]; SMA UFR141, AF3 @ 8 μg/mL): 0.5 µg/mL | MIC ATB in combination ([2]; SMA UFR141, CLA @ 4 μg/mL): 0.5 µg/mL | MIC ATB in combination ([2]; SMA UFR142, AF2 @ 8 μg/mL): 0.5 µg/mL | MIC ATB in combination ([2]; SMA UFR142, AF3 @ 8 μg/mL): 1 µg/mL | MIC ATB in combination ([2]; SMA UFR142, CLA @ 4 μg/mL): 2 µg/mL | MIC ATB in combination ([2]; SMA UFR143, AF2 @ 8 μg/mL): <=0.25 μg/mL | MIC ATB in combination ([2]; SMA UFR143, AF3 @ 8 μg/mL): <=0.25 μg/mL | MIC ATB in combination ([2]; SMA UFR143, CLA @ 4 μg/mL): 64 µg/mL | MIC ATB in combination ([2]; SMA UFR239, AF2 @ 8 μg/mL): 0.25 µg/mL | MIC ATB in combination ([2]; SMA UFR239, AF3 @ 8 μg/mL): <=0.25 μg/mL | MIC ATB in combination ([2]; SMA UFR239, CLA @ 4 μg/mL): 2 µg/mL | MIC ([2]; strain SMA UFR30, genotype OXA-405): 1 µg/mL | MIC ([2]; strain SMA UFR134, genotype TEM-1, BES-1): >128 µg/mL | MIC ([2]; strain SMA UFR135, genotype TEM-1, KPC-2): 64 µg/mL | MIC ([2]; strain SMA UFR136, genotype TEM-1, SHV-12, KPC-2): >128 µg/mL | MIC ([2]; strain SMA UFR137, genotype SME-1): 0.5 µg/mL | MIC ([2]; strain SMA UFR138, genotype SME-1): 0.5 µg/mL | MIC ([2]; strain SMA UFR139, genotype SME-2): 1 µg/mL | MIC ([2]; strain SMA UFR140, genotype IMP-1): >128 µg/mL | MIC ATB in combination ([2]; strain SMA UFR140, with AF2 @ 8 μg/mL): >128 µg/mL | MIC ATB in combination ([2]; strain SMA UFR140, with AF3 @ 8 μg/mL): >128 µg/mL | MIC ATB in combination ([2]; strain SMA UFR140, with CLA @ 4 μg/mL): >128 µg/mL | MIC ([2]; strain SMA UFR141, genotype OXA-48): 2 µg/mL | MIC ([2]; strain SMA UFR142, genotype OXA-48): 2 µg/mL | MIC ([2]; strain SMA UFR143, compound alone): 512 µg/mL | MIC ([2]; strain SMA UFR143, genotype CTX-M-15, OXA-1, OXA-48): 512 µg/mL | MIC ([2]; strain SMA UFR238, genotype OXA-48): 1 µg/mL | MIC ATB in combination ([2]; strain SMA UFR238, with AF2 @ 8 μg/mL): 0.5 µg/mL | MIC ATB in combination ([2]; strain SMA UFR238, with AF3 @ 8 μg/mL): 0.5 µg/mL | MIC ATB in combination ([2]; strain SMA UFR238, with CLA @ 4 μg/mL): 2 µg/mL | MIC ([2]; strain SMA UFR239, genotype ESAC): 2 µg/mL | MIC ATB in combination ([3]; AF2 @ 8 μg/mL): >128 µg/mL | MIC ATB in combination ([3]; AF3 @ 8 μg/mL): >128 µg/mL | MIC ATB in combination ([3]; CLA @ 4 μg/mL): >128 µg/mL | MIC ([3]; strain CMU 210102, genotype VIM-4): >128 µg/mL
